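1) Cells in 96-well plates. 2) Compound, 48 h, 5 concentrations. 3) Linear interpolation between surrounding doses. 4) Unreached endpoint = highest concentration. GI50: concentration for 50% inhibition of growth. The concentration for full growth arrest is given as TGI.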

The record followed here is PubChem BioAssay (NCI).

Holding throughout (test): NCI tumour cell line growth inhibition, 48 h
The subject of experiment [1] is DLD-1 colon.
The test system of experiment [2] is HS 578T breast.
Experiment [3] deals with MCF7 breast.
Experiment [4] has as its system HOP-18 NSCLC.
Experiment [5] has as its system P388 leukemia.
In experiment [6] the test system is SN12K1 renal.

`CCN(CC)CCNc1ccc2nnn3c4ccccc4c(=O)c1c23`: the TGI in experiment [1] was determined as 42.2 µM. `Oc1cc(CN2COc3ccccc32)c(O)cc1CNC1CCCCC1`: the TGI in experiment [2] is over 100 µM; in experiment [3], 42.7 µM.

Turning to `NC(N)=NC(N)=Nc1ccccc1` (tested in a mixture with another compound), the TGI in experiment [2] and in experiment [3] was over 100 µM throughout. With `C=CCc1cccc(/C=N\N=C(/N)NO)c1O`, the TGI is over 100 µM in experiment [1]; over 100 µM in experiment [4]; 9.82 µM in experiment [3]; 3.19 µM in experiment [5]; 11.6 µM in experiment [6]. `Nc1ccccc1N=Nc1c(S(=O)(=O)O)cc2cc(S(=O)(=O)O)cc(O)c2c1O`: the TGI in experiment [2] and in experiment [3] was over 100 µM throughout. On to `CC1=CC(C)(C)Nc2ccc(CSc3ccccc3)cc21`, for which the figures for the TGI in experiment [2] and in experiment [3] were over 100 µM and 60.9 µM, respectively. With `CC(C)CN(CC#N)CC(C)C`, the TGI in experiment [2] and in experiment [3] was over 100 µM throughout. For `CC(=O)N/C(=C\c1ccc(/C=C(\NC(C)=O)C2=NC3C(=O)c4ccccc4C(=O)C3N2)cc1)C1=NC2C(=O)c3ccccc3C(=O)C2N1` (centres undefined), the TGI in experiment [1] and in experiment [4] was over 100 µM each time. Take `Cc1c2c(ccc3ccccc32)c[n+]2ccccc12`: the TGI in experiment [1] is over 100 µM. In experiment [2], `C[N+](C)([O-])Cc1cc(-c2ccccc2)ccc1O` yielded a TGI of over 100 µM. As for `O=c1nc2sc3ccc4ccccc4c3n2[nH]c1=O`, the TGI in experiment [1] and in experiment [4] was over 100 µM each time. For `O=C(O)Cn1c2c(c3c(O)cccc31)C(=O)c1ccccc1-2`, the GI50 in experiment [2] and in experiment [3] was over 100 µM each time. Further, the TGI in experiment [2] and in experiment [3] was over 100 µM throughout. With `C[C@]12CC[C@@H]3c4ccc(OCCN5CCCC5)cc4CC[C@H]3[C@@H]1CCC2=O`, the TGI in experiment [3] was found to be 48.2 µM. In experiment [1], `CCCCN=C1OCc2[nH][nH]c(=O)c21` came in with a TGI of over 100 µM. Consider `[O-][n+]1c(-c2ccccc2)c2nc3ccccc3nc2c2ccccc21`, for which the TGI in experiment [1] was over 100 µM.

On to `O=C(O)c1nccnc1C(=O)O`, for which the TGI in experiment [1] was over 100 µM. As to `CCCCCCCCCCCCCCCC(=O)OC1C(O)C(CO)OC(OC)C1NC(=O)N(CCCl)N=O` (centres undefined), the values for the TGI in experiment [1] and in experiment [4] were 31.5 µM and 31.3 µM, respectively. For `CCCOC1OC(CS(=O)(=O)O)C(O)C(O)C1O` (centres undefined), the TGI in experiment [2] and in experiment [3] was over 100 µM in each case. With `CN(C)C(=O)C1CCN(Cc2c[nH]c3ccccc23)CC1`, the TGI in experiment [2] and in experiment [3] was over 100 µM throughout.

For `CCOC(=O)NC(Nc1ccc(Cl)cn1)(C(F)(F)F)C(F)(F)F`, the TGI in experiment [2] and in experiment [3] was over 100 µM in each case. In experiment [1], `N#CCCN(CCC#N)c1ccc(/C=C2\N=C(c3cc([N+](=O)[O-])ccc3Cl)N(NC(=O)CC(=O)Nc3ccccc3Cl)C2=O)cc1` registered a TGI of over 100 µM.
